Laboratory results taken from ChEMBL document CHEMBL4052768, “Discovery of novel 2-(3-phenylpiperazin-1-yl)-pyrimidin-4-ones as glycogen synthase kinase-3β inhibitors” (Bioorg Med Chem Lett, 2017).

Experiments:
[1] = target: Glycogen synthase kinase-3 beta (Homo sapiens, UniProt P49841); test: Inhibition of recombinant human GSK-3beta using prephosphorylated GS-1 peptide as substrate after 1 hr in presence of [gamma-32P]ATP by liquid scintillation spectrometric method
Cytochrome P450 3A4 [2] = target: T1, Cytochrome P450 3A4 (Homo sapiens, UniProt P08684); test: Inhibition of recombinant human CYP3A4; type: ADME
T1 sequence (P08684 whole entry): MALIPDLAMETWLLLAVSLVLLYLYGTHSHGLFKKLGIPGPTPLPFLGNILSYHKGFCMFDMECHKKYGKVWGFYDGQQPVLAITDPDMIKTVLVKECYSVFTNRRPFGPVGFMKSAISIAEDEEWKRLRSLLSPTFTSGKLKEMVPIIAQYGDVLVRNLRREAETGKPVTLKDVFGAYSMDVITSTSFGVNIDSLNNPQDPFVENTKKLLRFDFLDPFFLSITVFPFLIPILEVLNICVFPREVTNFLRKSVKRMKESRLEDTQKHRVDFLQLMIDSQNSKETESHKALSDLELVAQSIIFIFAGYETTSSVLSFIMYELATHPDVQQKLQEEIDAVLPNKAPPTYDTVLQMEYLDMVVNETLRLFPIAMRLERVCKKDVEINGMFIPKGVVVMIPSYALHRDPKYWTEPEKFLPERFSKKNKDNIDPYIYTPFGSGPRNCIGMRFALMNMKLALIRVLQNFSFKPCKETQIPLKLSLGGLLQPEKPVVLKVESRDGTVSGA

Cytochrome P450 2D6 [3] = target: T2, Cytochrome P450 2D6 (Homo sapiens, UniProt P10635); test: Inhibition of recombinant human CYP2D6; type: ADME
T2 sequence (P10635 whole entry): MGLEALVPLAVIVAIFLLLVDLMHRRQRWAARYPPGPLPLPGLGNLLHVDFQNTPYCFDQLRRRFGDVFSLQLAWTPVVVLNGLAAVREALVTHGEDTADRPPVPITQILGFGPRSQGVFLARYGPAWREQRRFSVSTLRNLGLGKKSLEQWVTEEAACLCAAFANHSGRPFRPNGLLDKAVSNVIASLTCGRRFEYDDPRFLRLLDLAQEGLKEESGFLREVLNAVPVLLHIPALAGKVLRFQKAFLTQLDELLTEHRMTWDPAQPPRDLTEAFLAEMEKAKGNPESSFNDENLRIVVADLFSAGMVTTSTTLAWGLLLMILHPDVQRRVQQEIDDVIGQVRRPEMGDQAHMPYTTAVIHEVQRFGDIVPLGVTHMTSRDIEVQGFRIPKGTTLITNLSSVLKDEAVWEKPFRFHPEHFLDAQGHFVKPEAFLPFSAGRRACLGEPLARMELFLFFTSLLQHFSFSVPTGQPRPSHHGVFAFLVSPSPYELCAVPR

Cytochrome P450 1A2 [4] = target: T3, Cytochrome P450 1A2 (Homo sapiens, UniProt P05177); test: Inhibition of recombinant human CYP1A2; type: ADME
T3 sequence (P05177 whole entry): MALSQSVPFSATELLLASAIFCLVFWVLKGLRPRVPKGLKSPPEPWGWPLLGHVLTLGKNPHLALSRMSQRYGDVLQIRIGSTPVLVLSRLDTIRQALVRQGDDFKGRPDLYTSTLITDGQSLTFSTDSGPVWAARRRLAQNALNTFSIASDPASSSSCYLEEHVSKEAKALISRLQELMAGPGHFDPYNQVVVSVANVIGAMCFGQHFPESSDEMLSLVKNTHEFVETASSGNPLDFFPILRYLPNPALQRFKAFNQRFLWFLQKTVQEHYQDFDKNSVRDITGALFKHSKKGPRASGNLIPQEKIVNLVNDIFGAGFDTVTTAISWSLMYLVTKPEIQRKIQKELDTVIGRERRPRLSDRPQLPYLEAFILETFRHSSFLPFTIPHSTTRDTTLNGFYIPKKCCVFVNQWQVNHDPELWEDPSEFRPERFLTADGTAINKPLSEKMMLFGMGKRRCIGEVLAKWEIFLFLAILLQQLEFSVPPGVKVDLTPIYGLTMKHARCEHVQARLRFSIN

Cytochrome P450 1A2 [5] = target: T3, Cytochrome P450 1A2; test: Inhibition of CYP1A2 in human liver microsomes; type: ADME
Cytochrome P450 2D6 [6] = target: T2, Cytochrome P450 2D6; test: Inhibition of CYP2D6 in human liver microsomes; type: ADME
Cytochrome P450 3A4 [7] = target: T1, Cytochrome P450 3A4; test: Inhibition of CYP3A4 in human liver microsomes; type: ADME

Glycogen synthase kinase-3 beta, sequence (P49841 whole entry): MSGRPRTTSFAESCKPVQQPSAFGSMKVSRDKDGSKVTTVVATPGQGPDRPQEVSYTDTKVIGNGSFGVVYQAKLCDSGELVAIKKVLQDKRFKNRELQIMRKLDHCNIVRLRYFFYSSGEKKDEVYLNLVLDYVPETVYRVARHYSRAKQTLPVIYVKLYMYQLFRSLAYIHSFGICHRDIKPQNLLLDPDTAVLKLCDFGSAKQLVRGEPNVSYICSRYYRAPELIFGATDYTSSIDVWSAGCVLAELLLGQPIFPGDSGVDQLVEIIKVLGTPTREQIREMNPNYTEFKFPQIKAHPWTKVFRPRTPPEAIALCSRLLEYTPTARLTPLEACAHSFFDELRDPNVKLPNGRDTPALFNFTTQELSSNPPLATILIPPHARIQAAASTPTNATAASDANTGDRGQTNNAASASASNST

Structure (SMILES)	IC50 [1] [nM]	other results
COc1ccc(C2CN(c3nc(-c4ccncc4)cc(=O)n3C)CCN2)cc1OC (stereo unspecified)	5.2	–
Cn1c(N2CCNC(c3ccccc3F)C2)nc(-c2ccncc2)cc1=O (stereo unspecified)	11	–
COc1cc(F)ccc1C1CN(c2nc(-c3ccncc3)cc(=O)n2C)CCN1Cc1ccccc1 (stereo unspecified)	1200	–
COc1cc(F)ccc1C1CN(c2nc(-c3ccncn3)cc(=O)n2C)CCN1C(C)=O (stereo unspecified)	1500	–
COc1cc(F)cc(F)c1C1CN(c2nc(-c3ccncn3)cc(=O)n2C)CCN1 (stereo unspecified)	1.7	–
CCOc1ccccc1C1CN(c2nc(-c3ccncc3)cc(=O)n2C)CCN1 (stereo unspecified)	25	–
Cn1c(N2CCN[C@H](c3ccc(Cl)cc3)C2)nc(-c2ccncc2)cc1=O	110	–
Cn1c(N2CCN[C@@H](c3ccc(Cl)cc3)C2)nc(-c2ccncc2)cc1=O	11	–
COc1cc(F)ccc1C1CN(c2nc(-c3ccncn3)cc(=O)n2C)CCN1C (stereo unspecified)	26	–
COc1cc(F)ccc1C1CN(c2nc(-c3ccncc3)cc(=O)n2C)CCN1C(C)=O (stereo unspecified)	1700	–
COc1cc(F)ccc1C1CN(c2nc(-c3ccncn3)cc(=O)n2C)CCN1Cc1ccccc1 (stereo unspecified)	220	–
COc1cc(F)ccc1C1CN(c2nc(-c3ccncc3)cc(=O)n2C)CCN1C (stereo unspecified)	56	–
Cc1cc(F)ccc1C1CN(c2nc(-c3ccncc3)cc(=O)n2C)CCN1 (stereo unspecified)	24	–
COc1cc(F)cc(F)c1C1CN(c2nc(-c3ccncc3)cc(=O)n2C)CCN1 (stereo unspecified)	2	–
Cn1c(N2CCNC(c3ccc(Cl)c(Cl)c3)C2)nc(-c2ccncc2)cc1=O (stereo unspecified)	4.3	–
COc1cccc(C2CN(c3nc(-c4ccncc4)cc(=O)n3C)CCN2)c1 (racemic)	11	IC50 (Cytochrome P450 3A4 [2]): > 50000 nM; IC50 (Cytochrome P450 2D6 [3]): 400 nM; IC50 (Cytochrome P450 1A2 [4]): > 50000 nM
Cn1c(N2CCNC(c3ccc(F)cc3)C2)nc(-c2ccncc2)cc1=O (racemic)	18	–
Cn1c(N2CCNC(c3cccc(F)c3)C2)nc(-c2ccncc2)cc1=O (racemic)	22	–
COc1cc(F)ccc1C1CN(c2nc(-c3ccncn3)cc(=O)n2C)CCN1 (racemic)	0.72	IC50 (Cytochrome P450 1A2 [5]): > 53000 nM; IC50 (Cytochrome P450 2D6 [3]): 2700 nM
COc1ccc(C2CN(c3nc(-c4ccncc4)cc(=O)n3C)CCN2)cc1 (racemic)	4.7	IC50 (Cytochrome P450 1A2 [5]): > 53000 nM; IC50 (Cytochrome P450 2D6 [6]): 45000 nM; IC50 (Cytochrome P450 3A4 [7]): > 53000 nM
Cn1c(N2CCNC(c3ccc(Cl)cc3)C2)nc(-c2ccncc2)cc1=O (racemic)	6.6	–
Cn1c(N2CCNC(c3cccc(Cl)c3)C2)nc(-c2ccncc2)cc1=O (racemic)	5.4	–
COc1ccccc1C1CN(c2nc(-c3ccncc3)cc(=O)n2C)CCN1 (racemic)	1.8	IC50 (Cytochrome P450 3A4 [2]): > 50000 nM; IC50 (Cytochrome P450 2D6 [3]): < 200 nM; IC50 (Cytochrome P450 1A2 [4]): > 50000 nM
COc1cc(F)ccc1C1CN(c2nc(-c3ccncc3)cc(=O)n2C)CCN1 (racemic)	0.9	IC50 (Cytochrome P450 3A4 [2]): > 53000 nM; IC50 (Cytochrome P450 1A2 [5]): > 53000 nM; IC50 (Cytochrome P450 2D6 [3]): 1800 nM
Cn1c(N2CCNC(c3ccccc3Br)C2)nc(-c2ccncc2)cc1=O (racemic)	13	–
Cn1c(N2CCNC(c3ccc(Br)cc3)C2)nc(-c2ccncc2)cc1=O (racemic)	22	–
Cn1c(N2CCNC(c3ccccc3)C2)nc(-c2ccncc2)cc1=O (racemic)	18	–
Cn1c(N2CCNC(c3ccccc3Cl)C2)nc(-c2ccncc2)cc1=O (racemic)	9.6	–
COc1cc(F)ccc1C1CN(c2nc(-c3ccncc3)cc(=O)n2C)CCN1 (single isomer, unassigned; enantiomer 1)	54	IC50 (Cytochrome P450 3A4 [2]): > 50000 nM; IC50 (Cytochrome P450 1A2 [5]): > 53000 nM; IC50 (Cytochrome P450 2D6 [3]): 1000 nM
COc1cc(F)ccc1C1CN(c2nc(-c3ccncc3)cc(=O)n2C)CCN1 (single isomer, unassigned; enantiomer 2)	0.4	IC50 (Cytochrome P450 3A4 [2]): > 50000 nM; IC50 (Cytochrome P450 1A2 [5]): > 53000 nM; IC50 (Cytochrome P450 2D6 [3]): 6000 nM

Continued, in another order:

IC50 [1] [nM]	Structure (SMILES)	other results
1.8	COc1ccccc1C1CN(c2nc(-c3ccncn3)cc(=O)n2C)CCN1 (stereo unspecified)	–
2.3	Cn1c(N2CCNC(c3ccc(Cl)c(Cl)c3)C2)nc(-c2ccncn2)cc1=O (stereo unspecified)	–
26	Cn1c(N2CCN[C@H](c3ccc(Cl)cc3)C2)nc(-c2ccncn2)cc1=O	–
8.2	Cn1c(N2CCNC(c3ccccc3F)C2)nc(-c2ccncn2)cc1=O (stereo unspecified)	–
7.8	COc1ccc(C2CN(c3nc(-c4ccncn4)cc(=O)n3C)CCN2)cc1OC (stereo unspecified)	–
20	CCOc1ccccc1C1CN(c2nc(-c3ccncn3)cc(=O)n2C)CCN1 (stereo unspecified)	–
1.2	Cn1c(N2CCN[C@@H](c3ccc(Cl)cc3)C2)nc(-c2ccncn2)cc1=O	–
12	Cn1c(N2CCNC(c3cccc(F)c3)C2)nc(-c2ccncn2)cc1=O (racemic)	–
1.1	Cn1c(N2CCNC(c3cccc(Cl)c3)C2)nc(-c2ccncn2)cc1=O (racemic)	–
2.6	Cn1c(N2CCNC(c3ccccc3Cl)C2)nc(-c2ccncn2)cc1=O (racemic)	–
15	Cn1c(N2CCNC(c3ccc(C#N)cc3)C2)nc(-c2ccncc2)cc1=O (racemic)	–
8.1	Cn1c(N2CCNC(c3ccc(Br)cc3)C2)nc(-c2ccncn2)cc1=O (racemic)	–
2	Cn1c(N2CCNC(c3cccc(Br)c3)C2)nc(-c2ccncn2)cc1=O (racemic)	–
7.4	Cn1c(N2CCNC(c3ccc(C#N)cc3)C2)nc(-c2ccncn2)cc1=O (racemic)	–
4.3	Cn1c(N2CCNC(c3ccccc3Br)C2)nc(-c2ccncn2)cc1=O (racemic)	–
3.5	COc1ccc(C2CN(c3nc(-c4ccncn4)cc(=O)n3C)CCN2)cc1 (racemic)	–
8.6	Cn1c(N2CCNC(c3ccc(F)cc3)C2)nc(-c2ccncn2)cc1=O (racemic)	–
6.7	COc1cccc(C2CN(c3nc(-c4ccncn4)cc(=O)n3C)CCN2)c1 (racemic)	–
1.7	Cn1c(N2CCNC(c3ccc(Cl)cc3)C2)nc(-c2ccncn2)cc1=O (racemic)	–
44	COc1cc(F)ccc1C1CN(c2nc(-c3ccncn3)cc(=O)n2C)CCN1 (single isomer, unassigned; Enantiomer-1)	IC50 (Cytochrome P450 3A4 [2]): > 50000 nM; IC50 (Cytochrome P450 1A2 [5]): > 53000 nM; IC50 (Cytochrome P450 2D6 [3]): 3400 nM
0.25	COc1cc(F)ccc1C1CN(c2nc(-c3ccncn3)cc(=O)n2C)CCN1 (single isomer, unassigned; enantiomer 2)	IC50 (Cytochrome P450 1A2 [5]): > 53000 nM; IC50 (Cytochrome P450 2D6 [3]): 9100 nM
